{"source": "patent US20210045385A1", "about": "“PYRIDAZINONE-SUBSTITUTED KETOXIMES AS HERBICIDES” (FMC Corporation, priority 2018, published 2021)", "assay_type_in_all_cases": "in vivo", "key": {"[1]": {"test_system": "pigweed (Amaranthus retroflexus)", "test": "Test C preemergence, visual plant response rating", "in_short": "(§1)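 Visual injury on a 0 (no effect) to 100 (complete control) scale versus untreated controls, scored approximately 10 d after treatment under greenhouse conditions. Treatments used surfactant-containing non-phytotoxic solvent formulations, sprayed onto loam–sand soil preemergence or onto one- to two-leaf plants 2–10 cm tall postemergence.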"}, "[2]": {"test_system": "ragweed (common ragweed, Ambrosia artemisiifolia)", "test": "Test C preemergence, visual plant response rating", "in_short": "as §1"}, "kochia (Bassia scoparia) [3]": {"test_system": "kochia (Bassia scoparia)", "test": "Test C preemergence, visual plant response rating", "in_short": "as §1"}, "[4]": {"test_system": "Italian ryegrass (Lolium mutiflorum)", "test": "Test C preemergence, visual plant response rating", "in_short": "as §1"}, "[5]": {"test_system": "barnyardgrass (Echinochloa crus-galli)", "test": "Test C preemergence, visual plant response rating", "in_short": "as §1"}, "[6]": {"test_system": "foxtail, giant (giant foxtail, Setaria faberi)", "test": "Test C preemergence, visual plant response rating", "in_short": "as §1"}, "[7]": {"test_system": "sedge umbrella (small-flower umbrella sedge, Cyperus difformis)", "test": "Test D flooded paddy test, visual plant response rating", "details": "250 g ai/ha, scale 0 to 100 (0 no effect, 100 complete control), 13 to 15 d", "in_short": "(§2)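 Rating is visual, on a 0 (no effect) to 100 (complete control) scale versus controls, taken 13 to 15 d after treatment in a greenhouse. Treatment went into paddy water kept 3 cm above the soil surface, with plants at the 2-leaf stage.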"}, "rice (Oryza sativa)": {"test_system": "rice (Oryza sativa)", "test": "Test D flooded paddy test, visual plant response rating", "details": "250 g ai/ha, scale 0 to 100 (0 no effect, 100 complete control), 13 to 15 d", "in_short": "as §2"}, "[8]": {"test_system": "duck salad (Heteranthera limosa)", "test": "Test D flooded paddy test, visual plant response rating", "details": "250 g ai/ha, scale 0 to 100 (0 no effect, 100 complete control), 13 to 15 d", "in_short": "as §2"}, "[9]": {"test_system": "barnyardgrass (Echinochloa crus-galli)", "test": "Test D flooded paddy test, visual plant response rating", "details": "250 g ai/ha, scale 0 to 100 (0 no effect, 100 complete control), 13 to 15 d", "in_short": "as §2"}, "[10]": {"test_system": "wheat (Triticum aestivum)", "test": "Test C postemergence, visual plant response rating", "in_short": "as §1"}, "[11]": {"test_system": "pigweed (Amaranthus retroflexus)", "test": "Test C postemergence, visual plant response rating", "in_short": "as §1"}, "[12]": {"test_system": "blackgrass (Alopecurus myosuroides)", "test": "Test C postemergence, visual plant response rating", "in_short": "as §1"}, "[13]": {"test_system": "ragweed (common ragweed, Ambrosia artemisiifolia)", "test": "Test C postemergence, visual plant response rating", "in_short": "as §1"}, "kochia (Bassia scoparia) [14]": {"test_system": "kochia (Bassia scoparia)", "test": "Test C postemergence, visual plant response rating", "in_short": "as §1"}, "corn (Zea mays)": {"test_system": "corn (Zea mays)", "test": "Test C postemergence, visual plant response rating", "in_short": "as §1"}, "[15]": {"test_system": "Italian ryegrass (Lolium mutiflorum)", "test": "Test C postemergence, visual plant response rating", "in_short": "as §1"}, "[16]": {"test_system": "barnyardgrass (Echinochloa crus-galli)", "test": "Test C postemergence, visual plant response rating", "in_short": "as §1"}, "[17]": {"test_system": "galium (catchweed bedstraw, Galium aparine)", "test": "Test C postemergence, visual plant response rating", "in_short": "as §1"}, "[18]": {"test_system": "foxtail, giant (giant foxtail, Setaria faberi)", "test": "Test C postemergence, visual plant response rating", "in_short": "as §1"}, "[19]": {"details": "Test C, 31 g ai/ha, 0 is no effect, 100 is complete control"}, "[20]": {"details": "Test C, 125 g ai/ha, 0 is no effect, 100 is complete control"}, "[21]": {"details": "Test C, postemergence, 125 g ai/ha"}}, "data": [{"compound": "CO/N=C(/c1c(O)c(C)nn(C)c1=O)c1cccc2cc(SC)ccc12", "note": "[Compound 297]", "values": [{"measurement": "Pigweed plant response rating (0 to 100 scale)", "setting": "[1]; [19]", "value": 0}, {"measurement": "Pigweed plant response rating (0 to 100 scale)", "setting": "[1]; [20]", "value": 0}, {"measurement": "Ragweed plant response rating (0 to 100 scale)", "setting": "[2]; [19]", "value": 0}, {"measurement": "Ragweed plant response rating (0 to 100 scale)", "setting": "[2]; [20]", "value": 0}, {"measurement": "Kochia plant response rating (0 to 100 scale)", "setting": "kochia (Bassia scoparia) [3]; [19]", "value": 0}, {"measurement": "Kochia plant response rating (0 to 100 scale)", "setting": "kochia (Bassia scoparia) [3]; [20]", "value": 0}, {"measurement": "Ryegrass, Italian plant response rating (0 to 100 scale)", "setting": "[4]; [19]", "value": 0}, {"measurement": "Ryegrass, Italian plant response rating (0 to 100 scale)", "setting": "[4]; [20]", "value": 0}, {"measurement": "Barnyardgrass plant response rating (0 to 100 scale)", "setting": "[5]; [19]", "value": 0}, {"measurement": "Barnyardgrass plant response rating (0 to 100 scale)", "setting": "[5]; [20]", "value": 0}, {"measurement": "Foxtail, Giant plant response rating (0 to 100 scale)", "setting": "[6]; [19]", "value": 0}, {"measurement": "Foxtail, Giant plant response rating (0 to 100 scale)", "setting": "[6]; [20]", "value": 0}, {"measurement": "Plant response rating, Sedge, Umbrella (Flood)", "setting": "[7]", "value": 0}, {"measurement": "Plant response rating, Rice (Flood)", "setting": "rice (Oryza sativa)", "value": 0}, {"measurement": "Plant response rating, Ducksalad (Flood)", "setting": "[8]", "value": 0}, {"measurement": "Plant response rating, Barnyardgrass (Flood)", "setting": "[9]", "value": 0}, {"measurement": "Wheat plant response rating (0 to 100 scale)", "setting": "[10]; Postemergence, 31 g ai/ha", "value": 0}, {"measurement": "Wheat plant response rating (0 to 100 scale)", "setting": "[10]; [21]", "value": 0}, {"measurement": "Pigweed plant response rating (0 to 100 scale)", "setting": "[11]; Postemergence, 31 g ai/ha", "value": 0}, {"measurement": "Pigweed plant response rating (0 to 100 scale)", "setting": "[11]; [21]", "value": 0}, {"measurement": "Blackgrass plant response rating (0 to 100 scale)", "setting": "[12]; Postemergence, 31 g ai/ha", "value": 0}, {"measurement": "Blackgrass plant response rating (0 to 100 scale)", "setting": "[12]; [21]", "value": 0}, {"measurement": "Ragweed plant response rating (0 to 100 scale)", "setting": "[13]; Postemergence, 31 g ai/ha", "value": 0}, {"measurement": "Ragweed plant response rating (0 to 100 scale)", "setting": "[13]; [21]", "value": 0}, {"measurement": "Kochia plant response rating (0 to 100 scale)", "setting": "kochia (Bassia scoparia) [14]; Postemergence, 31 g ai/ha", "value": 0}, {"measurement": "Kochia plant response rating (0 to 100 scale)", "setting": "kochia (Bassia scoparia) [14]; [21]", "value": 0}, {"measurement": "Corn plant response rating (0 to 100 scale)", "setting": "corn (Zea mays); Postemergence, 31 g ai/ha", "value": 0}, {"measurement": "Corn plant response rating (0 to 100 scale)", "setting": "corn (Zea mays); [21]", "value": 0}, {"measurement": "Ryegrass, Italian plant response rating (0 to 100 scale)", "setting": "[15]; Postemergence, 31 g ai/ha", "value": 0}, {"measurement": "Ryegrass, Italian plant response rating (0 to 100 scale)", "setting": "[15]; [21]", "value": 0}, {"measurement": "Barnyardgrass plant response rating (0 to 100 scale)", "setting": "[16]; Postemergence, 31 g ai/ha", "value": 0}, {"measurement": "Barnyardgrass plant response rating (0 to 100 scale)", "setting": "[16]; [21]", "value": 0}, {"measurement": "Galium plant response rating (0 to 100 scale)", "setting": "[17]; Postemergence, 31 g ai/ha", "value": 0}, {"measurement": "Galium plant response rating (0 to 100 scale)", "setting": "[17]; [21]", "value": 0}, {"measurement": "Foxtail, Giant plant response rating (0 to 100 scale)", "setting": "[18]; Postemergence, 31 g ai/ha", "value": 0}, {"measurement": "Foxtail, Giant plant response rating (0 to 100 scale)", "setting": "[18]; [21]", "value": 0}]}, {"compound": "CON=C(c1cc(C)cc(Cl)c1)c1c(O)c(C)nn(C)c1=O", "note": "[Compound 174]", "values": [{"measurement": "Pigweed plant response rating (0 to 100 scale)", "setting": "[1]; 125 g ai/ha", "value": 70}, {"measurement": "Pigweed plant response rating (0 to 100 scale)", "setting": "[1]; [19]", "value": 20}, {"measurement": "Ragweed plant response rating (0 to 100 scale)", "setting": "[2]; 125 g ai/ha", "value": 90}, {"measurement": "Ragweed plant response rating (0 to 100 scale)", "setting": "[2]; [19]", "value": 60}, {"measurement": "Kochia plant response rating (0 to 100 scale)", "setting": "kochia (Bassia scoparia) [3]; 125 g ai/ha", "value": 80}, {"measurement": "Kochia plant response rating (0 to 100 scale)", "setting": "kochia (Bassia scoparia) [3]; [19]", "value": 20}, {"measurement": "Ryegrass, Italian plant response rating (0 to 100 scale)", "setting": "[4]; 125 g ai/ha", "value": 90}, {"measurement": "Ryegrass, Italian plant response rating (0 to 100 scale)", "setting": "[4]; [19]", "value": 80}, {"measurement": "Barnyardgrass plant response rating (0 to 100 scale)", "setting": "[5]; 125 g ai/ha", "value": 90}, {"measurement": "Barnyardgrass plant response rating (0 to 100 scale)", "setting": "[5]; [19]", "value": 70}, {"measurement": "Foxtail, Giant plant response rating (0 to 100 scale)", "setting": "[6]; 125 g ai/ha", "value": 90}, {"measurement": "Foxtail, Giant plant response rating (0 to 100 scale)", "setting": "[6]; [19]", "value": 70}, {"measurement": "Plant response rating, Sedge, Umbrella (Flood)", "setting": "[7]", "value": 0}, {"measurement": "Plant response rating, Rice (Flood)", "setting": "rice (Oryza sativa)", "value": 0}, {"measurement": "Plant response rating, Ducksalad (Flood)", "setting": "[8]", "value": 0}, {"measurement": "Plant response rating, Barnyardgrass (Flood)", "setting": "[9]", "value": 0}, {"measurement": "Wheat plant response rating (0 to 100 scale)", "setting": "[10]; Postemergence, 31 g ai/ha", "value": 0}, {"measurement": "Wheat plant response rating (0 to 100 scale)", "setting": "[10]; [21]", "value": 0}, {"measurement": "Pigweed plant response rating (0 to 100 scale)", "setting": "[11]; Postemergence, 31 g ai/ha", "value": 60}, {"measurement": "Pigweed plant response rating (0 to 100 scale)", "setting": "[11]; [21]", "value": 80}, {"measurement": "Blackgrass plant response rating (0 to 100 scale)", "setting": "[12]; Postemergence, 31 g ai/ha", "value": 30}, {"measurement": "Blackgrass plant response rating (0 to 100 scale)", "setting": "[12]; [21]", "value": 40}, {"measurement": "Ragweed plant response rating (0 to 100 scale)", "setting": "[13]; Postemergence, 31 g ai/ha", "value": 80}, {"measurement": "Ragweed plant response rating (0 to 100 scale)", "setting": "[13]; [21]", "value": 90}, {"measurement": "Kochia plant response rating (0 to 100 scale)", "setting": "kochia (Bassia scoparia) [14]; Postemergence, 31 g ai/ha", "value": 70}, {"measurement": "Kochia plant response rating (0 to 100 scale)", "setting": "kochia (Bassia scoparia) [14]; [21]", "value": 90}, {"measurement": "Corn plant response rating (0 to 100 scale)", "setting": "corn (Zea mays); Postemergence, 31 g ai/ha", "value": 10}, {"measurement": "Corn plant response rating (0 to 100 scale)", "setting": "corn (Zea mays); [21]", "value": 20}, {"measurement": "Ryegrass, Italian plant response rating (0 to 100 scale)", "setting": "[15]; Postemergence, 31 g ai/ha", "value": 60}, {"measurement": "Ryegrass, Italian plant response rating (0 to 100 scale)", "setting": "[15]; [21]", "value": 100}, {"measurement": "Barnyardgrass plant response rating (0 to 100 scale)", "setting": "[16]; Postemergence, 31 g ai/ha", "value": 60}, {"measurement": "Barnyardgrass plant response rating (0 to 100 scale)", "setting": "[16]; [21]", "value": 90}, {"measurement": "Galium plant response rating (0 to 100 scale)", "setting": "[17]; Postemergence, 31 g ai/ha", "value": 100}, {"measurement": "Galium plant response rating (0 to 100 scale)", "setting": "[17]; [21]", "value": 100}, {"measurement": "Foxtail, Giant plant response rating (0 to 100 scale)", "setting": "[18]; Postemergence, 31 g ai/ha", "value": 50}, {"measurement": "Foxtail, Giant plant response rating (0 to 100 scale)", "setting": "[18]; [21]", "value": 90}]}]}
